This is an account of results in PMC3948684, “Approaches to Improve the Oral Bioavailability and Effects of Novel Anticancer Drugs Berberine and Betulinic Acid” (PLoS ONE, 2014).

SMILES strings stand for the structures.

The MRT is a mean duration of stay, worked out from the concentration-time curve. In general, Tmax refers to the time at which the peak concentration occurs. Usually AUC(0-inf) stands for total exposure, with the tail of the curve extrapolated. A higher AUC(0-inf) goes with more exposure. As a reminder, the Cmax is the highest concentration seen after dosing.

The subject of one data set is H1650 colonies. The experiment in a line: Clonogenic assay (colony formation). The format is cell-based, Human. The conditions noted are these: BBR at 1, 3 and 10 µM. From the text: Supplementary file pone.0089919.s002.tif: Figure S2 Effect of BBR on colony formation. A) Effects of BBR free drug and BBR-SD on spheroid number B) on spheroid sizes. Representative clonogenic images of H1650 colonies form C) control and D) BBR free drug and BBR-SD treated groups. Colonies were stained with crystal violet staining for better visibility. Each data point is represented as mean±sem (n = 6–10). **p<0.01 and ***p<0.001 Vs respective untreated control groups. (TIF) Click here for additional data file.

Data set [1] in a line: Oral pharmacokinetic study. The format is in vivo, Sprague Dawley rats. On the procedure: Rats were fasted overnight before the start of the experiments and randomly divided into two experimental groups. […] Pharmacokinetic parameters were analyzed using non-compartmental techniques with WinNonlin® 5.0 software (Pharsight Corporation, Mountain View, CA, USA). SHAM analysis (i.e., Slope, Height, Area, and Moment) utilized plasma concentration-time data to estimate the area under the curve (AUC), apparent terminal elimination rate constant (λz), terminal elimination half-life (t1/2) and the area under the first moment of the plasma concentration–time curve (AUMC). The AUC was calculated for each rat using the piecewise log trapezoidal areas and extrapolated to infinity by dividing λz into the last measured plasma concentration (i.e. Clast/λz). From the values of AUC0_0-∞ and AUMC0-∞, the clearance (CL), mean residence time (MRT) and volume of distribution at tissue equilibrium (Vss) were calculated based on noncompartmental monoexponential assumptions as: CL = Dose/AUC, MRT≅AUMC/AUC and Vss = CL×MRT. The noncompartmental parameters were calculated for each rat before averaging dose groups. The pharmacokinetic parameters such as AUC, Cmax, t1/2, tmax, MRT, etc were compared between the free drug and SD formulations.

Data set [2] has as its system A549 orthotopic lung tumors. In words: A549 orthotopic lung cancer model. Format: in vivo, athymic Nu/nu mice. Particulars: 100 mg/kg orally daily for 3 weeks. On the procedure: A549 cells were grown in F12K Medium containing 10% FBS and standard antibiotic mix at 5% CO2 and 37°C. For orthotopic lung tumor model, mice were anesthetized with Isoflurane and a 5 mm skin incision was made to the left chest, 5 mm below the scapula. Hamilton syringes (1 ml) with 28-gauge hypodermic needles were used to inject the cell inoculums through the sixth intercostal space into the left lung. The needle was quickly advanced to a depth of 3 mm and quickly removed after the injection of the A549 cells (2 million/mouse) suspended in 100 µL PBS (pH 7.4) into the lung parenchyma. For metastatic lung tumor models H1650 cells (2 million in 100 µL PBS) were intravenously administered to mice via tail vein. […] Only cell suspensions of >95% viability as determined by tryphan blue exclusion were used. Wounds from the incisions were closed with surgical skin clips. […] Drug treatment was started 2 weeks after the tumor cell implantation. BBR free drug or SD formulation was given orally at the dose of 100 mg/kg daily for 3 weeks. […] Body weights were monitored throughout the study. Animal survival rates were recorded during the study. The lung weights and tumor volumes were used for assessment of therapeutic activity of the treatments. After sacrificing the animals lung weights and tumor nodules were recorded in metastatic tumor models.

The next data set deals with cleaved caspase 3. In words: IHC analysis of orthotopic lung tumor sections. The format is in vivo, athymic Nu/nu mice. The conditions noted are these: A549 tumors. From the text: (§1) Formalin fixed tumors were processed for automatic histopathological procedures. The detailed procedure was provided in Data S1 [30].
(§2) C) IHC for cleaved caspase 3 and CD31: Formalin fixed tumors were processed for automatic histopathological procedures. The detailed procedure was provided in supplmmentary data (Supple). Tissue sections were dehydrated by immersing in increasing concentrations of alcohol and embedded in paraffin. Paraffin embedded specimens were cut into thin sections (4-5 µm). Tissue sections (4–5 μm thick) were mounted on poly-L-lysine–coated slides and sections were deparaffinized with xylene and rehydration through graded concentrations of alcohol, then incubated with 3% […] for 20 min to block endogenous peroxidase activity. Antigen retrieval for cleaved caspase 3 and CD31 staining was carried out for 10 min in 0.01 M sodium citrate buffer (pH 6), heated at 95°C in a steam bath followed by cooling for 30 min. Endogenous peroxidase was blocked by 3% hydrogen peroxide in PBS for 10 min. The slides were washed with PBS and incubated for 1h at room temperature with a protein blocking solution. […] Numbers of positive cells per filed was quantified by counting 10 different fields from each section. Based on the CD31 positive cells, microvessel density (MVD) was calculated (30).

Another data set relates to CD31. In words: IHC analysis of orthotopic lung tumor sections (microvessel density). The conditions noted are these: A549 tumors; CD31 positive cells. The format is in vivo, athymic Nu/nu mice.
Text: as §1, §2

Data set [3] deals with TUNEL positive apoptotic cells. In words: TUNEL assay on orthotopic lung tumor sections. The format is in vivo, athymic Nu/nu mice. On the procedure:
Terminal deoxynucleotidyl transferase-mediated dUTP nick end labeling (TUNEL) assay was used to study the DNA fragmentation or apoptosis detection. TUNEL assay was performed on 4–5 µm thick sections as per the kit manual. Formalin-fixed tumor tissues were embedded in paraffin and sectioned ([…]). DeadEndTM Colorimetric Apoptosis Detection System (Promega, Madison, WI) allows the recognition of apoptotic nuclei in paraffin-embedded tissue sections fixed on slides according to the manufacturer's protocol. Briefly, the equilibration buffer was added to slides and incubated for 10 minutes followed by 10-minute incubation in […] proteinase K solution. The sections were washed in PBS and incubated with TdT enzyme at 37°C for 1 h in a humidified chamber for incorporation of biotinylated nucleotides at the 3-OH ends of DNA. The slides were incubated in horseradish peroxidase-labeled streptavidin to bind the biotinylated nucleotides followed by detection with stable chromagen DAB. The images on the slides were visualized with an Olympus BX40 light microscope equipped with a computer-controlled digital camera (DP71, Olympus Center Valley, PA, USA). Three slides per group were stained and apoptotic cells were identified by dark brown […] staining.

Details of data set [4]: method as in PMID 17531424. The conditions noted are these: single oral dose of 400 mg ref 20; cited from earlier work.
Where [5] appears, read: Sprague Dawley, rat, plasma, po, 100 mg/kg orally.

`COc1ccc2cc3[n+](cc2c1OC)CCc1cc2c(cc1-3)OCO2.[Cl-]` [BBR free drug, 5,6-dihydro-9,10-dimethoxy-benzo[g]-1,3-benzodioxolo[5,6-a]quinolizinium, chloride]: the “number of colonies and colony sizes” value in the data set on H1650 colonies is recorded as “significantly decreased”. Moreover, the CL in data set [1] (100 mg/kg orally) stood at 2.034 ± 0.2813 mL/min/kg. Also, in data set [1] (BBR, 100 mg/kg orally), the “AUMC (0-∞)” value was determined as 5619.03±651.24 ng.h^2/ml and the Vss is 1.04839 ± 0.10635 L/kg. Further, the half-life in data set [1] (Sprague Dawley, rat, plasma, po, 100 mg/kg, read-out: t½ (converted)) is 5.95 ± 0.47 h. Besides, in data set [1] (setting [5]), the MRT was found to be 6.85 ± 1.68 h and the time of peak concentration (Tmax) is 1.41 ± 0.67 h. The same compound registered an AUC(0-inf) in data set [1] (Sprague Dawley, rat, plasma, po, BBR, 100 mg/kg orally) of 819 ± 82 ng·h/mL. In addition, the concentration in data set [1] (Sprague Dawley, rat, po, BBR, 100 mg/kg orally, plasma) peaked (Cmax) at 147 ± 21.8 ng/mL. Also, in data set [2], the “decrease in tumor volumes compared to untreated control” value is reported as 1.31 fold, the lung tumor weights is 385.77 ± 63.42 mg and the “reduced tumor weights compared to control tumors” value was determined as 1.40 fold. Further, the “number of cleaved caspase 3 positive apoptotic cells, higher compared to control” value with cleaved caspase 3 turned out to be 4.20 fold. In addition, the “microvessel density (MVD) reduced compared to untreated control tumors” value with CD31 is listed as 1.44 fold. For the same compound, in data set [3], the “increase in TUNEL positive apoptotic cells compared to control tumors” value stood at 2.74 fold. Moreover, the “Cmax in human plasma” value in data set [4] was 0.4 ng/mL.
